# Tested on: NCIH929.1 cells
# Test: Cell viability assay for Table 2 (CellTiter-Glo 2.0, ATP quantification, 96 hr)
# Type: cell-based
# Details: 96 h, NCIH929.1 cell viability, 96 hr, top concentration 1 μM, 14 points half log titration; read-out: IC50
# From the text: Cell Viability Assay for Table 2
# CellTiter-Glo® 2.0 Assay was purchased from Promega (Madison, Wis., USA). NCIH929.1 cell line was purchased from ATCC (Manassas, Va., USA). Cell culture flasks and 384-well microplates were acquired from VWR (Radnor, Pa., USA).
row,SMILES,IC50 [nM]
1,"CC1(c2cn(Cc3ccc4c5c(cccc35)C(=O)N4C3CCC(=O)NC3=O)nn2)CCN(C(=O)C2(C(F)(F)F)CC2)CC1 (centres unmarked) [Compound 127, 3-[6-[[4-[4-methyl-1-[1-(trifluoromethyl)cyclopropanecarbonyl]-4-piperidyl]triazol-1-yl]methyl]-2-oxo-benzo[cd]indol-1-yl]piperidine-2,6-dione]",< 1
2,"O=C1CC[C@H](N2C(=O)c3cccc4c(Cc5ccc(CN6CCOCC6)cc5)ccc2c34)C(=O)N1 (single isomer, unassigned) [Compound 219, 3-(6-(4-(morpholinomethyl)benzyl)-2-oxobenzo[cd]indol-1(2H)-yl)piperidine-2,6-dione]",< 1
3,"N#Cc1ccc(N2CCC(Nc3ccc(Cc4ccc5c6c(cccc46)C(=O)N5C4CCC(=O)NC4=O)cc3)CC2)c(F)c1 (centres unmarked) [Compound 166, 4-[4-[4-[[1-(2,6-dioxo-3-piperidyl)-2-oxo-benzo[cd]indol-6-yl]methyl]anilino]-1-piperidyl]-3-fluoro-benzonitrile]",< 1
4,"CC(c1ccc(Cc2ccc3c4c(cccc24)C(=O)N3C2CCC(=O)NC2=O)cc1)N1CCN(c2ccccc2F)CC1 (single isomer, unassigned) [Compound 284, 3-[6-[[4-[1-[4-(2-fluorophenyl)piperazin-1-yl]ethyl]phenyl]methyl]-2-oxo-benzo[cd]indol-1-yl]piperidine-2,6-dione]",< 1
5,"CC1(CN2CCC(n3cc(Cc4ccc5c6c(cccc46)C(=O)N5C4CCC(=O)NC4=O)cn3)CC23CC3)CCC1 (single isomer, unassigned) [Compound 274, 3-[6-[[1-[4-[(1-methylcyclobutyl)methyl]-4-azaspiro[2.5]octan-7-yl]pyrazol-4-yl]methyl]-2-oxo-benzo[cd]indol-1-yl]piperidine-2,6-dione]",< 1
6,"CC1(n2cc(Cc3ccc4c5c(cccc35)C(=O)N4C3CCC(=O)NC3=O)cn2)CCN(C(=O)C2(C#N)CC2)CC1 (centres unmarked) [Compound 79, 1-(4-(4-((1-(2,6-dioxopiperidin-3-yl)-2-oxo-1,2-dihydrobenzo[cd]indol-6-yl)methyl)-1H-pyrazol-1-yl)-4-methylpiperidine-1-carbonyl)cyclopropane-1-carbonitrile]",< 1
7,"CC(C)(C#N)CN1CCC(n2cc(Cc3ccc4c5c(cccc35)C(=O)N4C3CCC(=O)NC3=O)cn2)CC1 (centres unmarked) [Compound 61, 3-(4-(4-((1-(2,6-dioxopiperidin-3-yl)-2-oxo-1,2-dihydrobenzo[cd]indol-6-yl)methyl)-1H-pyrazol-1-yl)piperidin-1-yl)-2,2-dimethylpropanenitrile]",< 1
8,"CC1(CN2CCC(n3cc(Cc4ccc5c6c(cccc46)C(=O)N5C4CCC(=O)NC4=O)cn3)CC23CC3)CCC1 (centres unmarked) [Compound 275, 3-[6-[[1-[4-[(1-methylcyclobutyl)methyl]-4-azaspiro[2.5]octan-7-yl]pyrazol-4-yl]methyl]-2-oxo-benzo[cd]indol-1-yl]piperidine-2,6-dione]",< 1
9,"O=C1CCC(N2C(=O)c3cccc4c(Cc5ccc(CN6CCOCC6)cc5)ccc2c34)C(=O)N1 (centres unmarked) [Compound 218, 3-(6-(4-(morpholinomethyl)benzyl)-2-oxobenzo[cd]indol-1(2H)-yl)piperidine-2,6-dione]",< 1
10,"CC1(n2cc(Cc3ccc4c5c(cccc35)C(=O)N4C3CCC(=O)NC3=O)nn2)CCN(C(=O)C2(C(F)(F)F)CC2)CC1 (centres unmarked) [Compound 211, 3-(6-((1-(4-methyl-1-(1-(trifluoromethyl)cyclopropane-1-carbonyl)piperidin-4-yl)-1H-1,2,3-triazol-4-yl)methyl)-2-oxobenzo[cd]indol-1(2H)-yl)piperidine-2,6-dione]",< 1

# Same assay, conditions: NCIH929.1 cell viability, 96 hr, top concentration 1 μM, 14 points half log titration; read-out: IC50
row,SMILES,IC50 [nM]
1,"CC(C)(C)OC(=O)N1CCC(n2cc(Cc3ccc4c5c(cccc35)C(=O)N4C3CCC(=O)NC3=O)cn2)CC1 (single isomer, unassigned) [Compound 142, tert-butyl 4-[4-[[1-[2,6-dioxo-3-piperidyl]-2-oxo-benzo[cd]indol-6-yl]methyl]pyrazol-1-yl]piperidine-1-carboxylate]",< 1
